Results taken from paper PMC7101356, “Cross-site and cross-platform variability of automated patch clamp assessments of drug effects on human cardiac currents in recombinant cells” (Scientific Reports, 2020).
Where two headings read alike, the source gives them in different places.

Legend:
peak hNav1.5 = molecular target: T1, peak hNav1.5 (Homo sapiens, UniProt Q14524); experiment: Automated patch clamp, peak hNav1.5 current block; assay type: cell-based
T1 construct: expressed in transfected cells; host or cells: HEK293 or CHO, depending on site

late hNav1.5 = molecular target: T2, late hNav1.5 (Homo sapiens, UniProt Q14524); experiment: Automated patch clamp, late hNav1.5 current block (ATX-II activated); assay type: cell-based
T2 construct: expressed in transfected cells; host or cells: HEK293 or CHO, depending on site
Description: However, all external solutions contained 30 nM ATX-II in order to activate late current. Late current was measured at its maximum during the repolarizing ramp.
Concentration-response relationships for each test article were independently investigated, i.e., each cell received only one test article, typically evaluating multiple concentrations in a cumulative fashion (lowest to highest concentrations). However, some platforms tested only one concentration per well. Each concentration response was based on a minimum of four concentrations, with a minimum of three wells used for each concentration. In cases of high variability, more cells per concentration were recorded. Prior to drug addition, cells received an addition of vehicle to measure non-test article-related effects such as addition artifacts. At the end of the experiment, a supramaximal concentration of a known inhibitory reference compound was applied to assess leak current and appropriate responsiveness of the test system.
The steady state current at each concentration was used to determine the concentration-response relationships. Mean concentration-response data were fitted to a standard sigmoidal four-parameter logistic equation (GraphPad Prism 7; GraphPad Inc., La Jolla, CA) of the form: Y=Bottom+(Top−Bottom)/(1+10^∧(LogIC50−X)∗HillSlope) where Y is the current inhibition (in % of pre-drug control), X is the logarithm of drug concentration, and IC50 is the drug concentration producing half-maximal current inhibition. Curve fitting was performed using the following constraints: Top = 100%, Bottom = 0%, Hill Slope <2. No curve fitting was performed in cases with an obvious lack of a concentration-dependent current inhibition and/or small effect size (approximately ≤20%).

[1] = based on CiPA evaluations; cited from earlier work
hCav1.2 = hCav1.2 (Homo sapiens, UniProt Q13936); experiment: Automated patch clamp, hCav1.2 current block
Sequence of hCav1.2 (Q13936 whole entry): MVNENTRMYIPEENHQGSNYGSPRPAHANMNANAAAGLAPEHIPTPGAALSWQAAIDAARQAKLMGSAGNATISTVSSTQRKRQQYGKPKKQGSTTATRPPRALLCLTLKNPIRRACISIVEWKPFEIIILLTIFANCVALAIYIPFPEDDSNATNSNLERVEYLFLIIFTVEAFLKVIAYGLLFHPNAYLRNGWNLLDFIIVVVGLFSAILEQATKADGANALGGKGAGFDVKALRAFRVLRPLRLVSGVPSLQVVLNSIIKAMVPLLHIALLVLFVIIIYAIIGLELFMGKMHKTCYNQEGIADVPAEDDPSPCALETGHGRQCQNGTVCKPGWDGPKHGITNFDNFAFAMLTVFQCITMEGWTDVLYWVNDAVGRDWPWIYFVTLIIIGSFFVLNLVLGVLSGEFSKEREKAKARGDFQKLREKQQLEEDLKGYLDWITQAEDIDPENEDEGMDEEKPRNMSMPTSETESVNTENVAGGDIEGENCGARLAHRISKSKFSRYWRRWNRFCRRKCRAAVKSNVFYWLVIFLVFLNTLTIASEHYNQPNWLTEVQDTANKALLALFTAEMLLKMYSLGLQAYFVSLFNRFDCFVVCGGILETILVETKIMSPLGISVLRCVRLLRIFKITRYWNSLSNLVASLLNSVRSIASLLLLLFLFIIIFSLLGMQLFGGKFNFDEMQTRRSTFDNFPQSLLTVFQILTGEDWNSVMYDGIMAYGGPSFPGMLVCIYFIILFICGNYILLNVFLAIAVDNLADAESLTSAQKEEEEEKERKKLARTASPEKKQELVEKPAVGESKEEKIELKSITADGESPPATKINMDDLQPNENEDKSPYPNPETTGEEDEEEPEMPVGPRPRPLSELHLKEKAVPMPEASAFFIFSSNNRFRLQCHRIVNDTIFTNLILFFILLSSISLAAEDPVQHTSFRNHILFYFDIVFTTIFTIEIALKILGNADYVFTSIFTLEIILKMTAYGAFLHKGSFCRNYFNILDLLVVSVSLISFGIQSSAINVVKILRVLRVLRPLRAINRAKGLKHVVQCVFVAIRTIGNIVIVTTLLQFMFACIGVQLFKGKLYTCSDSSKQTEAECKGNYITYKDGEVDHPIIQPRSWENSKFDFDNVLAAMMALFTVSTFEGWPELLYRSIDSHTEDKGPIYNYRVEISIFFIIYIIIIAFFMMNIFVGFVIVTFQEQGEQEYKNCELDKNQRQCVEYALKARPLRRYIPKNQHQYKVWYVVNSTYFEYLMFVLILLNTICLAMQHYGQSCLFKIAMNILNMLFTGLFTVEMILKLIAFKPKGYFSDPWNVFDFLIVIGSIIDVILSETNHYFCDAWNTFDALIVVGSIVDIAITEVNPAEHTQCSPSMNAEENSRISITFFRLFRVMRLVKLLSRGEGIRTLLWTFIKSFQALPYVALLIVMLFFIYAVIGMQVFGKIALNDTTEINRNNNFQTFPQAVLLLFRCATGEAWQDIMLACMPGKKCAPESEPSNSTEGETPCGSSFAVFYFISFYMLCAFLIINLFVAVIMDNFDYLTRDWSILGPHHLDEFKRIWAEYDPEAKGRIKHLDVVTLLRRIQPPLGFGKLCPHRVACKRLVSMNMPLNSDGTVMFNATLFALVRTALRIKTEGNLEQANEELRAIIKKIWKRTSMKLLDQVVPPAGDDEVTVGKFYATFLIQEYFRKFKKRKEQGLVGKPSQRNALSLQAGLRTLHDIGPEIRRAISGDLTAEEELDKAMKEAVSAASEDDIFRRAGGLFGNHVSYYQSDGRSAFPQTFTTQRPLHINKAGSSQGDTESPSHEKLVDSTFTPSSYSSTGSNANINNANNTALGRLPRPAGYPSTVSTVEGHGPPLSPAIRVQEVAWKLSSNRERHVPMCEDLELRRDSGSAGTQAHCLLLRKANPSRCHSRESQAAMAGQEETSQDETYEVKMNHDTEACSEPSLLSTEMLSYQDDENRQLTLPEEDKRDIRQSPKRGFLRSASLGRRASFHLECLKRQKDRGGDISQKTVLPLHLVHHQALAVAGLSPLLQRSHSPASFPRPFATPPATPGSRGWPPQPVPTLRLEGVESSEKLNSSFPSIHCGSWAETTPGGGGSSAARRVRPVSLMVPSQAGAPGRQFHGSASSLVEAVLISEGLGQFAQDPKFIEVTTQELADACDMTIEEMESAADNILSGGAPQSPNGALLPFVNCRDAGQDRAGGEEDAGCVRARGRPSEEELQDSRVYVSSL
Sequence of hCav1.2 (Q08289 whole entry partner): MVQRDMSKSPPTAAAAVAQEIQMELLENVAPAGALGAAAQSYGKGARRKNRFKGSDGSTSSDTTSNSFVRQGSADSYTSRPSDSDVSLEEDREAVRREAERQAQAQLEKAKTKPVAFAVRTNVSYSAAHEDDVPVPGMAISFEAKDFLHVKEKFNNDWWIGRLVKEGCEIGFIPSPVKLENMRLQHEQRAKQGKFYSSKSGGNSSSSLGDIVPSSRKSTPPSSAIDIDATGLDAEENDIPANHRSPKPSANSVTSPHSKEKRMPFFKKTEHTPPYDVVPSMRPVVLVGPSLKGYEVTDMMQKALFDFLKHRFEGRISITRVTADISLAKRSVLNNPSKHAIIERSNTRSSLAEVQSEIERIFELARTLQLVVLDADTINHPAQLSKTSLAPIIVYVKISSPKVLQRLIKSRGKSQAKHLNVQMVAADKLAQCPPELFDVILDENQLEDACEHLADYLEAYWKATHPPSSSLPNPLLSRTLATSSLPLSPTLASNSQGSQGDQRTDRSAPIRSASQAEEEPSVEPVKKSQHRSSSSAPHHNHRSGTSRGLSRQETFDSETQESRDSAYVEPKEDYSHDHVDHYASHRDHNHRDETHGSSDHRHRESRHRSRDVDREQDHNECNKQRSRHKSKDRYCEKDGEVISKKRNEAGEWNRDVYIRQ
Sequence of hCav1.2 (P54289 25-956 partner limits assumed): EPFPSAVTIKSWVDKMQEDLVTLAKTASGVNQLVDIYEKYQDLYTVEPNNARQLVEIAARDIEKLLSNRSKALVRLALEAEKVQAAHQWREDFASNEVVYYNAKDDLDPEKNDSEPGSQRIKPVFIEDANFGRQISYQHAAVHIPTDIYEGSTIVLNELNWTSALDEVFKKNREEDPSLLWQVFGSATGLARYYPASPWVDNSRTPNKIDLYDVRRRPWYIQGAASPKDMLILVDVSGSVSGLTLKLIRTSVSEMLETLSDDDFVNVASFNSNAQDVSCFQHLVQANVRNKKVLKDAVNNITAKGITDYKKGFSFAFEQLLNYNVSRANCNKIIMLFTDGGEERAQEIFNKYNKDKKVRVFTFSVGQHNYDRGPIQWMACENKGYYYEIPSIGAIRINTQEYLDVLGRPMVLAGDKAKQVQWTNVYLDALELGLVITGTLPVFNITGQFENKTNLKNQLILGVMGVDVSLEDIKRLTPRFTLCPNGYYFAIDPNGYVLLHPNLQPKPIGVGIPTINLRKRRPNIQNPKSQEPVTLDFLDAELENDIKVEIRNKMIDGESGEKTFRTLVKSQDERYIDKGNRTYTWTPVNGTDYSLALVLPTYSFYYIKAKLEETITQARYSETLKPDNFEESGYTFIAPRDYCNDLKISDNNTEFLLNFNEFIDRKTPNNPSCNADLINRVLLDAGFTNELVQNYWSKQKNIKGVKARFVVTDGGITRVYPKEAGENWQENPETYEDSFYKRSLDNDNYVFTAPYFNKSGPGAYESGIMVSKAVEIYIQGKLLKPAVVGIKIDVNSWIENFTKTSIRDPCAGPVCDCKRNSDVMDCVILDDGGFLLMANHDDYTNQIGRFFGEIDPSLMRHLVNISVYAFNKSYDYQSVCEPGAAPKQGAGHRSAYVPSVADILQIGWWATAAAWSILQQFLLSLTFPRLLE
Sequence of hCav1.2 (P54289 957-1103 partner limits assumed): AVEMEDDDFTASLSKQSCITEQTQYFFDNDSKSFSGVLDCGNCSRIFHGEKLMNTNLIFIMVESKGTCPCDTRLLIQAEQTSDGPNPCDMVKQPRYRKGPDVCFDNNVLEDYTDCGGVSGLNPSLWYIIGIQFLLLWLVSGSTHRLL

hERG = hERG (Homo sapiens, UniProt Q12809); experiment: Automated patch clamp, hERG current block (consensus step-ramp protocol); conditions: human, hERG K+ current inhibition, Mean, 1.00E-08 mol/L
Sequence of hERG (Q12809 whole entry): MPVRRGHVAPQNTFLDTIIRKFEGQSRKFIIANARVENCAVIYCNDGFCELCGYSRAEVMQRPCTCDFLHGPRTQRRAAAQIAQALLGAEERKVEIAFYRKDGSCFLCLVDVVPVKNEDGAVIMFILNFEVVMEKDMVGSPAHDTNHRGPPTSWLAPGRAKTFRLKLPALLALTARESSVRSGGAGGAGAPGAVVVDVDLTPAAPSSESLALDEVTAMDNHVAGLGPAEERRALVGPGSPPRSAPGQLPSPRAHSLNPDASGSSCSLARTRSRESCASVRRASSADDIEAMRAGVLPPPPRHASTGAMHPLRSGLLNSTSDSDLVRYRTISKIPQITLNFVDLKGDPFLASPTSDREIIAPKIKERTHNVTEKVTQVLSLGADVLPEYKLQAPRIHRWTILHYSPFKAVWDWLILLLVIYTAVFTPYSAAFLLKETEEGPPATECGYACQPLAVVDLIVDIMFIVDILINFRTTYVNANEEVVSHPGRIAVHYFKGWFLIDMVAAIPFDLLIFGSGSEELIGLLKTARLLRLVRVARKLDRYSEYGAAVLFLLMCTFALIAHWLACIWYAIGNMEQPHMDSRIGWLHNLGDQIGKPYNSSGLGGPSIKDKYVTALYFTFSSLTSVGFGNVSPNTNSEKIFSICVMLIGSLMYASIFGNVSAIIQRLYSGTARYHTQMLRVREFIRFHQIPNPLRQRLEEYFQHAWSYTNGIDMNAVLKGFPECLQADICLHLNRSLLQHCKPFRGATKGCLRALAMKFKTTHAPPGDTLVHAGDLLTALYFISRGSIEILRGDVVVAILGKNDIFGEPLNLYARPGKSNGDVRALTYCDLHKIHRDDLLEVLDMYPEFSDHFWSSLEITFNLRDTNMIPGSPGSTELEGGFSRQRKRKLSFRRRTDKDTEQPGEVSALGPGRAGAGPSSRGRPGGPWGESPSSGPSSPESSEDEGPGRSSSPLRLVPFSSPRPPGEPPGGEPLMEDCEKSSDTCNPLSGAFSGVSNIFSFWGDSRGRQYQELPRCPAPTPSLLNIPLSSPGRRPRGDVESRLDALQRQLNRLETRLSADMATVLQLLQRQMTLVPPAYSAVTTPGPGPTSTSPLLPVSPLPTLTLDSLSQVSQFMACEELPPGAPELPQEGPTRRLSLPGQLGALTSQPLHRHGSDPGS

[2] = site_platform s06_p4, 1.00E-08 mol/L
[3] = site_platform s06_p4, 3.00E-07 mol/L
[4] = site_platform s07_p6, 1.00E-08 mol/L
[5] = site_platform s07_p6, 3.00E-07 mol/L
[6] = site_platform s13_p2, 1.00E-08 mol/L
[7] = site_platform s13_p2, 3.00E-07 mol/L
[8] = site_platform s14_p1, 1.00E-08 mol/L
[9] = site_platform s14_p1, 3.00E-07 mol/L

SMILES: CC(C)COCC(CN(Cc1ccccc1)c1ccccc1)N1CCCC1 (stereo not drawn) [bep, bepridil]
- IC50 (peak hNav1.5): 2450 nM
- log IC50, peak hNav1.5 Na+ current inhibition (peak hNav1.5; site_platform s01_p1): no inh.
- Peak hNav1.5 Na+ current inhibition, Mean (peak hNav1.5; site_platform s01_p1, 1.00E-08 mol/L): 27.2%
- Peak hNav1.5 Na+ current inhibition, Mean (peak hNav1.5; site_platform s01_p1, 3.00E-07 mol/L): 49.4%
- log IC50, peak hNav1.5 Na+ current inhibition (peak hNav1.5; site_platform s02_p2): no inh.
- Peak hNav1.5 Na+ current inhibition, Mean (peak hNav1.5; site_platform s02_p2, 1.00E-08 mol/L): 0.5%
- Peak hNav1.5 Na+ current inhibition, Mean (peak hNav1.5; site_platform s02_p2, 3.00E-07 mol/L): 5.1%
- log IC50, peak hNav1.5 Na+ current inhibition (peak hNav1.5; site_platform s04_p3): no inh.
- Peak hNav1.5 Na+ current inhibition, Mean (peak hNav1.5; site_platform s04_p3, 1.00E-08 mol/L): 7.9%
- Peak hNav1.5 Na+ current inhibition, Mean (peak hNav1.5; site_platform s04_p3, 3.00E-07 mol/L): 13.7%
- log IC50, peak hNav1.5 Na+ current inhibition (peak hNav1.5; site_platform s06_p4): no inh.
- Peak hNav1.5 Na+ current inhibition, Mean (peak hNav1.5; [2]): -6.3%
- Peak hNav1.5 Na+ current inhibition, Mean (peak hNav1.5; [3]): 0.9%
- log IC50, peak hNav1.5 Na+ current inhibition (peak hNav1.5; site_platform s07_p6): no inh.
- Peak hNav1.5 Na+ current inhibition, Mean (peak hNav1.5; [4]): -3.3%
- Peak hNav1.5 Na+ current inhibition, Mean (peak hNav1.5; [5]): -0.6%
- nH, Hill slope, peak hNav1.5 inhibition (peak hNav1.5; site_platform s10_p3): 0.57
- Peak hNav1.5 Na+ current inhibition, Mean (peak hNav1.5; site_platform s10_p3, 1.00E-08 mol/L): 3.5%
- Peak hNav1.5 Na+ current inhibition, Mean (peak hNav1.5; site_platform s10_p3, 3.00E-07 mol/L): 22.0%
- IC50 (peak hNav1.5; site_platform s10_p3, read-out: log IC50, peak hNav1.5 inhibition (converted)): 2690 nM
- log IC50, peak hNav1.5 inhibition (peak hNav1.5; site_platform s11_p1): no inh.
- Peak hNav1.5 Na+ current inhibition, Mean (peak hNav1.5; site_platform s11_p1, 1.00E-08 mol/L): 4.3%
- Peak hNav1.5 Na+ current inhibition, Mean (peak hNav1.5; site_platform s11_p1, 3.00E-07 mol/L): 10.4%
- log IC50, peak hNav1.5 inhibition (peak hNav1.5; site_platform s12_p2): no inh.
- Peak hNav1.5 Na+ current inhibition, Mean (peak hNav1.5; site_platform s12_p2, 1.00E-08 mol/L): 0.0%
- Peak hNav1.5 Na+ current inhibition, Mean (peak hNav1.5; site_platform s12_p2, 3.00E-07 mol/L): 0.0%
- log IC50, peak hNav1.5 inhibition (peak hNav1.5; site_platform s13_p2): no inh.
- Peak hNav1.5 Na+ current inhibition, Mean (peak hNav1.5; [6]): 3.2%
- Peak hNav1.5 Na+ current inhibition, Mean (peak hNav1.5; [7]): 6.7%
- nH, Hill slope, peak hNav1.5 inhibition (peak hNav1.5; site_platform s14_p1): 0.78
- Peak hNav1.5 Na+ current inhibition, Mean (peak hNav1.5; [8]): 6.0%
- Peak hNav1.5 Na+ current inhibition, Mean (peak hNav1.5; [9]): 17.8%
- nH, Hill slope, peak hNav1.5 inhibition (peak hNav1.5; site_platform s15_p1): 0.68
- Peak hNav1.5 Na+ current inhibition, Mean (peak hNav1.5; site_platform s15_p1, 1.00E-08 mol/L): 13.5%
- Peak hNav1.5 Na+ current inhibition, Mean (peak hNav1.5; site_platform s15_p1, 3.00E-07 mol/L): 51.4%
- IC50 (peak hNav1.5; site_platform s15_p1, read-out: log IC50, peak hNav1.5 inhibition (converted)): 324 nM
- nH, Hill slope, peak hNav1.5 inhibition (peak hNav1.5; site_platform s16_p3): 0.36
- Peak hNav1.5 Na+ current inhibition, Mean (peak hNav1.5; site_platform s16_p3, 1.00E-08 mol/L): 8.1%
- Peak hNav1.5 Na+ current inhibition, Mean (peak hNav1.5; site_platform s16_p3, 3.00E-07 mol/L): 26.6%
- IC50 (peak hNav1.5; site_platform s16_p3, read-out: log IC50, peak hNav1.5 inhibition (converted)): 4470 nM
- nH, Hill slope, peak hNav1.5 inhibition (peak hNav1.5; site_platform s17_p1): 1.09
- Peak hNav1.5 Na+ current inhibition, Mean (peak hNav1.5; site_platform s17_p1, 1.00E-08 mol/L): 2.7%
- Peak hNav1.5 Na+ current inhibition, Mean (peak hNav1.5; site_platform s17_p1, 3.00E-07 mol/L): 30.0%
- IC50 (peak hNav1.5; site_platform s17_p1, read-out: log IC50, peak hNav1.5 inhibition (converted)): 676 nM
- log IC50, peak hNav1.5 inhibition (peak hNav1.5; site_platform s18_p1): no inh.
- Peak hNav1.5 Na+ current inhibition, Mean (peak hNav1.5; site_platform s18_p1, 1.00E-08 mol/L): 54.7%
- Peak hNav1.5 Na+ current inhibition, Mean (peak hNav1.5; site_platform s18_p1, 3.00E-07 mol/L): 68.5%
- nH, Hill slope, peak hNav1.5 inhibition (peak hNav1.5; site_platform s19_p3): 0.50
- Peak hNav1.5 Na+ current inhibition, Mean (peak hNav1.5; site_platform s19_p3, 1.00E-08 mol/L): 2.2%
- Peak hNav1.5 Na+ current inhibition, Mean (peak hNav1.5; site_platform s19_p3, 3.00E-07 mol/L): 17.3%
- IC50 (peak hNav1.5; site_platform s19_p3, read-out: log IC50, peak hNav1.5 inhibition (converted)): 6920 nM
- nH, Hill slope, late hNav1.5 inhibition (late hNav1.5; site_platform s06_p4): 1.86
- Late hNav1.5 Na+ current inhibition, Mean (late hNav1.5; [2]): -0.5%
- Late hNav1.5 Na+ current inhibition, Mean (late hNav1.5; [3]): 43.7%
- IC50 (late hNav1.5; site_platform s06_p4, read-out: log IC50, late hNav1.5 inhibition (converted)): 363 nM
- log IC50, late hNav1.5 inhibition (late hNav1.5; site_platform s07_p6): no inh.
- Late hNav1.5 Na+ current inhibition, Mean (late hNav1.5; [4]): 5.5%
- Late hNav1.5 Na+ current inhibition, Mean (late hNav1.5; [5]): 12.3%
- log IC50, late hNav1.5 inhibition (late hNav1.5; site_platform s13_p2): no inh.
- Late hNav1.5 Na+ current inhibition, Mean (late hNav1.5; [6]): 24.3%
- Late hNav1.5 Na+ current inhibition, Mean (late hNav1.5; [7]): 29.9%
- log IC50, late hNav1.5 inhibition (late hNav1.5; site_platform s14_p1): no inh.
- Late hNav1.5 Na+ current inhibition, Mean (late hNav1.5; [8]): 54.2%
- Late hNav1.5 Na+ current inhibition, Mean (late hNav1.5; [9]): 10.2%
- TdP Risk Category [1]: High
- Peak hCav1.2 Ca2+ current inhibition, Mean (hCav1.2; site s01_p1, 1.00E-08 mol/L): 5.6%
- Peak hCav1.2 Ca2+ current inhibition, Mean (hCav1.2; site s01_p1, 3.00E-07 mol/L): 16.7%
- nH, Hill slope (hCav1.2; site s02_p2, corrected for rundown): 0.64
- Peak hCav1.2 Ca2+ current inhibition, Mean (hCav1.2; site s02_p2, corrected for rundown, 1.00E-08 mol/L): 4.4%
- Peak hCav1.2 Ca2+ current inhibition, Mean (hCav1.2; site s02_p2, corrected for rundown, 3.00E-07 mol/L): 34.4%
- Peak hCav1.2 Ca2+ current inhibition, Mean (hCav1.2; site s04_p3, 1.00E-08 mol/L): 12.6%
- Peak hCav1.2 Ca2+ current inhibition, Mean (hCav1.2; site s04_p3, 3.00E-07 mol/L): 17.5%
- Peak hCav1.2 Ca2+ current inhibition, Mean (hCav1.2; site s06_p4, 1.00E-08 mol/L): 5.9%
- Peak hCav1.2 Ca2+ current inhibition, Mean (hCav1.2; site s06_p4, 3.00E-07 mol/L): 13.9%
- Peak hCav1.2 Ca2+ current inhibition, Mean (hCav1.2; site s11_p1, 1.00E-08 mol/L): 13.2%
- Peak hCav1.2 Ca2+ current inhibition, Mean (hCav1.2; site s11_p1, 3.00E-07 mol/L): 21.4%
- Peak hCav1.2 Ca2+ current inhibition, Mean (hCav1.2; site s14_p1, 1.00E-08 mol/L): -0.1%
- Peak hCav1.2 Ca2+ current inhibition, Mean (hCav1.2; site s14_p1, 3.00E-07 mol/L): 8.2%
- nH, Hill slope (hCav1.2; site s16_p3): 0.51
- Peak hCav1.2 Ca2+ current inhibition, Mean (hCav1.2; site s16_p3, 1.00E-08 mol/L): 8.6%
- Peak hCav1.2 Ca2+ current inhibition, Mean (hCav1.2; site s16_p3, 3.00E-07 mol/L): 45.8%
- Peak hCav1.2 Ca2+ current inhibition, Mean (hCav1.2; site s18_p1, 1.00E-08 mol/L): 28.2%
- Peak hCav1.2 Ca2+ current inhibition, Mean (hCav1.2; site s18_p1, 3.00E-07 mol/L): 31.3%
- inhibition at 1e-08 mol/L (hERG; site_platform s07_p5): 0.5%
- inhibition at 4 min, 1e-08 mol/L (hERG; site_platform s10_p3): 1.5%
- inhibition at 7 min, 1e-08 mol/L (hERG; site_platform s11_p1): 12%
- inhibition at 7 min, 1e-08 mol/L (hERG; site_platform s14_p1): 41.9%
